These results are taken from US20250018019A1, “TREATMENT OF INTERFERON DRIVEN INFLAMMATION” (The Provost, Fellows, Foundation Scholars and the other …, priority 2023, published 2025).

In experiment [1] the test system is BMDMs. The experiment is described as follows: LC-MS steady-state metabolomics / fumarate levels in BMDMs. It counts as cell-based, mouse. The following applies: LPS 4 h; for ratios of ATP/ADP, ATP/AMP, and P-creatine/creatine: BMDMs pre-treated 3 h (FHIN1 10 or 20 μM, DMF 25 μM). The method, then:
(§1) All compounds used DMSO as a vehicle except for 4-hydroxy tamoxifen (EtOH), NAC (PBS), and AOAA for tracing experiments (Media). LPS was used at a concentration of 100 ng/ml for indicated timepoints (2, 3, 4, 6, 8, 24, 48 h). FHIN1 (10 or 20 μM), MMF (50 or 100 μM), DMF (25 μM), AOAA (5 mM), oligomycin (10 μM), CCCP (50 μM) NAC (1 mM), and IMT1 (10 μM) pre-treatments were performed for 3 h prior the addition of LPS. Cells were treated with valinomycin (10 nM) 15 mins before LPS stimulation. Anti-CD210 or IgG control (10 μg/ml) antibodies were added to cells 1 h prior to LPS stimulation. Recombinant mouse IL-10 protein (100 ng/ml) was added to cells at the same time as LPS. Cells were treated with IFN-B1 (220 ng/ml) for 3 h. Cells were treated with C-178 (1 μM) 1 h prior to LPS stimulation or transfection with 2′3′-cGAMP (1.5 μg/ml) for 4 hrs to achieve cGAS-STING activation. Cells were treated with ODN 2088 (1 μM) for 1 hr prior to LPS stimulation or transfection with CPG ODN 1826 (1.5 μg/ml) to achieve TLR9 activation. 3 different timepoints of 4-hydroxy tamoxifen (TAM) (600 nM or 2 μM) or EtOH treatment were performed-these are specified in the individual figure legends. For ‘48 h’ treatments EtOH/TAM was added on day 5 of 6 during the BMDM differentiation protocol. On day 6 they were plated with EtOH/TAM (left overnight) and treated the following day. For ‘72 h’ treatments EtOH/TAM was added on day […] of 6 during the BMDM differentiation protocol. On day 6 they were plated with EtOH/TAM (left overnight) and treated the following day. For ‘96 h’ treatments EtOH/TAM was added on day […] of 6 during the BMDM differentiation protocol. On day 6 they were plated with EtOH/TAM and treated 2 days later.
BMDMs (3 independent mice) were plated at 0.5×10^6 cells/well in 12-well plates in technical triplicate per condition, treated as indicated, snap frozen and stored at −80° C. For metabolomics on cytosolic fraction, BMDMs were plated at 10×10^6 cells/10 cm dish and rapid fractionation was performed as previously reported^16. Metabolite extraction solution (MES) (methanol/acetonitrile/water, 50:30:20 v/v/v) was added (0.5 mL per 1×10^6 cells) and samples were incubated for 15 min on dry ice. The resulting suspension was transferred to ice-cold microcentrifuge tubes. Samples were agitated for 20 min at 4° C. in a thermomixer and then incubated at −20° C. for 1 h. Samples were centrifuged at maximum speed for 10 min at 4° C. The supernatant was transferred into a new tube and centrifuged again at maximum speed for 10 min at 4° C. The supernatant was transferred to autosampler vials and stored at −80° C. prior to analysis by LC-MS.
HILIC chromatographic separation of metabolites was achieved using a Millipore Sequant ZIC-PHILIC analytical column (5 μm, 2.1×150 mm) equipped with a 2.1×20 mm guard column (both […] particle size) with a binary solvent system. Solvent A was 20 mM ammonium carbonate, 0.05% ammonium hydroxide; Solvent B was acetonitrile. The column oven and autosampler tray were held at 40° C. and 4° C., respectively. The chromatographic gradient was run at a flow rate of 0.200 mL/min as follows: 0-2 min: 80% B; 2-17 min: linear gradient from 80% B to 20% B; 17-17.1 min: linear gradient from 20% B to 80% B; 17.1-22.5 min: hold at 80% B. Samples were randomized and analysed with LC-MS in a blinded manner and the injection volume was 5 μl. Pooled samples were generated from an equal mixture of all individual samples and analysed interspersed at regular intervals within sample sequence as a quality control. Metabolites were measured with a Thermo Scientific Q Exactive Hybrid Quadrupole-Orbitrap Mass spectrometer (HRMS) coupled to a Dionex Ultimate 3000 UHPLC or with Vanquish Horizon UHPLC coupled to an Orbitrap Exploris 240 mass spectrometer (both Thermo Fisher Scientific) via a heated electrospray ionization source. […]

For experiment [2], the system named is BMDMs. The experiment is described as follows: ELISA of cytokine release from BMDMs. It counts as cell-based, mouse. The following applies: for IL-6 release / IL-10 release / TNF-α release: BMDMs pre-treated 3 h. The procedure:
as §1
Pre-designed silencer select siRNAs for Cgas (s103166), Tmem173 (s91058), Tlr3 (s100579), Tlr9 (s96268), As/(s99640), Tlr7 (s100720), Ddx58 (s106376), Ifih1 (s89787), Nrf2 (s70522), Atf4 (s62689) and negative control (4390843) were ordered from Thermo Fisher. siRNA sequences are given in Table S2. Cells were transfected with 50 nM siRNA using 5 μl lipofectamine RNAiMAX according to manufacturer's instructions (Thermo Fisher). Cells were transfected in medium without serum and antibiotics which was replaced with complete medium 8 hours later. Cells were subsequently left for at least a further 12 hours prior to treatment.
BMDMs were plated in the presence or absence of ultrapure ethidium bromide (100 ng/ml) and incubated for a further 6 days prior to treatment. Depletion of mtDNA was determined by genomic DNA isolation followed by qPCR using primers specific for areas of mitochondrial DNA (D-loop) and areas of mtDNA that are not inserted into nuclear DNA (Non-NUMT).
DuoSet ELISA kits for IL-1β, TNFα, IL-6, IL-10, and GDF15 were purchased from R&D Systems and were carried out according to the manufacturer's instructions with appropriately diluted cell supernatants added to each plate in duplicate or triplicate. IFN-β was determined using DuoSet ELISA kit from R&D Systems or Abcam (ab252363). Quantikine ELISA kit for IFN-β (R&D Systems) was used for determination of IFN-β concentration in serum samples and from human cells, and these were also carried out according to the manufacturer's instructions. Absorbance at 450 nm was quantified using a FLUOstar Optima plate reader. Corrected absorbance values were calculated by subtracting the background absorbance, and cytokine concentrations were subsequently obtained by extrapolation from a standard curve plotted on GraphPad Prism 9.2.0.
In general terms: ELISA stands for enzyme-linked immunosorbent assay.

Counter-ions that a name gives are not always drawn.

On to `COC(=O)/C=C/C(=O)OC` [DMF, dimethyl fumarate], for which the “ratios of ATP/ADP, ATP/AMP, and P-creatine/creatine” value in the experiment on BMDMs [1] is “no effect”. In the experiment with BMDMs [2] (LPS 4 h), the IL-6 release result is given as “reduced”, the IL-10 release entry is recorded as “decreased” and the TNF-α release entry is on record as “increased”.
For the molecule `CCOC(=O)[C@@]12CCCC=C1N(Cc1ccc(-c3ccccc3)cc1)C(=O)[C@H]2CC(=O)NC` [FHIN1, Fumarate hydratase-IN-1], the “ratios of ATP/ADP, ATP/AMP, and P-creatine/creatine” value in the experiment on BMDMs [1] is “reduced”. For the same molecule, in the experiment with BMDMs [1] (BMDMs pre-treated 3 h), the GSSG/GSH ratio entry is given as “unchanged”; the “TCA cycle metabolites including citrate, aconitate, itaconate and succinate” value is on record as “alterations”; the aconitate/citrate ratio entry is listed as “decreased”; the “fumarate and 2SC accumulation” value is recorded as “enhanced”. Besides, in the experiment with BMDMs [1] (BMDMs pre-treated 3 h), the “glyceraldehyde 3-phosphate (G3P)/2/3-phosphoglycerate (2/3-PG) ratio” value is reported as “increased” and the total glutathione result is given as “depletion”. In the experiment with BMDMs [2] (LPS 4 h), the IL-6 release result was “reduced”, the IL-10 release entry is “decreased” and the TNF-α release result was “increased”. In addition, in the experiment with BMDMs [2] (BMDMs pre-treated, LPS 4 h), the GDF15 release result was “drove GDF15 release” and the “LPS-induced IFN-β release” value is on record as “increase”. Besides, the TNF-α production entry with BMDMs [2] (BMDMs pre-treated, co-treated with recombinant IL-10 100 ng/ml, LPS 4 h) is on record as “failed to impair STAT3 phosphorylation or augment TNF-α production”. In the experiment on BMDMs [2] (BMDMs treated with EtBr 100 ng/ml 6 days (mtDNA depletion), then FHIN1, LPS 4 h), the “LPS-induced IFN-β release in the presence of EtBr” value was “no longer boosted”. Also, in the experiment with BMDMs [2] (BMDMs, siRNA 50 nM, LPS 4 h), the “augmentation in IFN-β release with knockdown of Tlr3” value is given as “did not affect” and the “boost in IFN-β release with silencing of Tlr7, Ddx58 (RIG-I) or Ifih1 (MDA5)” value is given as “abrogated”.
